According to PubChem BioAssay (NCI):
“And” between values parts separate entries of the source, which are not always exact repeats. Equal entries are not always repeated.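 Compound exposure: 48 hours, 5 concentrations, 96-well plates. GI50 marks 50% less growth. At the TGI there is no net growth.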

Key:
Assay in all cases: NCI anticancer screen, dose series, 48 h; in the data active = GI50 below about 0.43 µM; inactive = the rest
XF 498 CNS = tested on: XF 498 CNS
HT29 colon = tested on: HT29 colon
SK-MEL-5 melanoma = tested on: SK-MEL-5 melanoma
SF-268 CNS = tested on: SF-268 CNS
U251 CNS = tested on: U251 CNS
SW-620 colon = tested on: SW-620 colon
KM12 colon = tested on: KM12 colon
RXF-631 renal = tested on: RXF-631 renal
CAKI-1 renal = tested on: CAKI-1 renal
COLO 205 colon = tested on: COLO 205 colon
TK-10 renal = tested on: TK-10 renal
ACHN renal = tested on: ACHN renal
HOP-92 NSCLC = tested on: HOP-92 NSCLC
UACC-257 melanoma = tested on: UACC-257 melanoma
RPMI-8226 leukemia = tested on: RPMI-8226 leukemia
K-562 leukemia = tested on: K-562 leukemia
SR leukemia = tested on: SR leukemia
SK-MEL-28 melanoma = tested on: SK-MEL-28 melanoma
IGROV1 ovarian = tested on: IGROV1 ovarian
M14 melanoma = tested on: M14 melanoma
MOLT-4 leukemia = tested on: MOLT-4 leukemia
DLD-1 colon = tested on: DLD-1 colon
HCC-2998 colon = tested on: HCC-2998 colon
HCT-15 colon = tested on: HCT-15 colon
OVCAR-5 ovarian = tested on: OVCAR-5 ovarian
SNB-19 CNS = tested on: SNB-19 CNS
EKVX NSCLC = tested on: EKVX NSCLC
CCRF-CEM leukemia = tested on: CCRF-CEM leukemia
HL-60(TB) leukemia = tested on: HL-60(TB) leukemia
SF-295 CNS = tested on: SF-295 CNS
OVCAR-8 ovarian = tested on: OVCAR-8 ovarian
OVCAR-4 ovarian = tested on: OVCAR-4 ovarian
RXF 393 renal = tested on: RXF 393 renal
UO-31 renal = tested on: UO-31 renal
HOP-18 NSCLC = tested on: HOP-18 NSCLC
HOP-62 NSCLC = tested on: HOP-62 NSCLC
NCI-H460 lung = tested on: NCI-H460 lung
KM20L2 colon = tested on: KM20L2 colon
A498 renal = tested on: A498 renal
SN12C renal = tested on: SN12C renal
SK-MEL-2 melanoma = tested on: SK-MEL-2 melanoma
NCI-H23 lung = tested on: NCI-H23 lung
DMS 273 small cell lung = tested on: DMS 273 small cell lung
HCT-116 colon = tested on: HCT-116 colon
LOX IMVI melanoma = tested on: LOX IMVI melanoma
SK-OV-3 ovarian = tested on: SK-OV-3 ovarian
OVCAR-3 ovarian = tested on: OVCAR-3 ovarian
UACC-62 melanoma = tested on: UACC-62 melanoma
LXFL 529 NSCLC = tested on: LXFL 529 NSCLC
NCI-H522 lung = tested on: NCI-H522 lung
DMS 114 small cell lung = tested on: DMS 114 small cell lung
786-0 renal = tested on: 786-0 renal
A549 NSCLC = tested on: A549 NSCLC
MALME-3M melanoma = tested on: MALME-3M melanoma
SNB-75 CNS = tested on: SNB-75 CNS
SNB-78 CNS = tested on: SNB-78 CNS
NCI-H226 lung = tested on: NCI-H226 lung
SF-539 CNS = tested on: SF-539 CNS
M19-MEL melanoma = tested on: M19-MEL melanoma

CC(C)(C)c1cc(-c2c3nc(c(-c4cc(C(C)(C)C)cc(C(C)(C)C)c4)c4ccc([nH]4)c(-c4cc(C(C)(C)C)cc(C(C)(C)C)c4)c4nc(c(-c5cc(C(C)(C)C)cc(C(C)(C)C)c5)c5ccc2[nH]5)C=C4)C=C3)cc(C(C)(C)C)c1
> 100 µM: TGI (XF 498 CNS) | TGI (HT29 colon) | TGI (SK-MEL-5 melanoma) | TGI (SF-268 CNS) | TGI (U251 CNS) | TGI (SW-620 colon) | TGI (KM12 colon) | TGI (RXF-631 renal) | TGI (CAKI-1 renal) | TGI (COLO 205 colon) | TGI (TK-10 renal) | TGI (ACHN renal) | TGI (HOP-92 NSCLC) | TGI (UACC-257 melanoma) | TGI (RPMI-8226 leukemia) | TGI (K-562 leukemia) | TGI (SR leukemia) | TGI (SK-MEL-28 melanoma) | TGI (IGROV1 ovarian) | TGI (M14 melanoma) | TGI (MOLT-4 leukemia) | TGI (DLD-1 colon) | TGI (HCC-2998 colon) | TGI (HCT-15 colon) | TGI (OVCAR-5 ovarian) | TGI (SNB-19 CNS) | TGI (EKVX NSCLC) | TGI (CCRF-CEM leukemia) | TGI (HL-60(TB) leukemia) | TGI (SF-295 CNS) | TGI (OVCAR-8 ovarian) | TGI (OVCAR-4 ovarian) | TGI (RXF 393 renal) | TGI (UO-31 renal) | TGI (HOP-18 NSCLC) | TGI (HOP-62 NSCLC) | TGI (NCI-H460 lung) | TGI (KM20L2 colon) | TGI (A498 renal) | TGI (SN12C renal) | TGI (SK-MEL-2 melanoma) | TGI (NCI-H23 lung) | TGI (DMS 273 small cell lung) | TGI (HCT-116 colon) | TGI (LOX IMVI melanoma) | TGI (SK-OV-3 ovarian) | TGI (OVCAR-3 ovarian) | TGI (UACC-62 melanoma) | TGI (LXFL 529 NSCLC) | TGI (NCI-H522 lung) | TGI (DMS 114 small cell lung) | TGI (786-0 renal) | TGI (A549 NSCLC) | TGI (MALME-3M melanoma) | TGI (SNB-75 CNS) | TGI (SNB-78 CNS) | TGI (NCI-H226 lung) | TGI (SF-539 CNS)

COc1ccc(C2N3CCCCC3[C@@H]3c4[nH]c5ccccc5c4CCN23)c(OC)c1 (stereo partly specified)
32.6 µM: TGI (HT29 colon)
36.9 µM: TGI (SK-MEL-28 melanoma)
38.4 µM: TGI (DMS 114 small cell lung)
28.2 µM: TGI (XF 498 CNS)
35.2 µM: TGI (SF-539 CNS)
58.7 µM: TGI (NCI-H23 lung)
72.4 µM: TGI (UACC-257 melanoma)
34.3 µM: TGI (DMS 273 small cell lung)
> 100 µM: TGI (U251 CNS) | TGI (SW-620 colon) | TGI (CAKI-1 renal) | TGI (HOP-92 NSCLC) | TGI (K-562 leukemia) | TGI (IGROV1 ovarian) | TGI (DLD-1 colon) | TGI (HCT-15 colon) | TGI (SNB-19 CNS) | TGI (EKVX NSCLC) | TGI (SF-295 CNS) | TGI (OVCAR-8 ovarian) | TGI (HOP-18 NSCLC) | TGI (HOP-62 NSCLC) | TGI (786-0 renal) | TGI (A549 NSCLC)
38 µM: TGI (HCT-116 colon)
33.8 µM: TGI (SN12C renal)
43.2 µM: TGI (COLO 205 colon)
49.9 µM: TGI (MOLT-4 leukemia) | TGI (LXFL 529 NSCLC)
50.2 µM: TGI (NCI-H460 lung)
79.7 µM: TGI (OVCAR-5 ovarian)
31 µM: TGI (UACC-62 melanoma)
56.5 µM: TGI (OVCAR-4 ovarian)
49 µM: TGI (SNB-78 CNS)
74.1 µM: TGI (UO-31 renal)
32.7 µM: TGI (SK-MEL-5 melanoma)
69.1 µM: TGI (TK-10 renal)
41.9 µM: TGI (KM20L2 colon)
53 µM: TGI (SF-268 CNS)
42 µM: TGI (HL-60(TB) leukemia)
85.3 µM: TGI (OVCAR-3 ovarian)
55.2 µM: TGI (ACHN renal)
34.7 µM: TGI (SK-MEL-2 melanoma)
45.6 µM: TGI (RPMI-8226 leukemia)
63.3 µM: TGI (CCRF-CEM leukemia)
34.6 µM: TGI (RXF 393 renal)
37.4 µM: TGI (M19-MEL melanoma)
30.1 µM: TGI (A498 renal)
30.5 µM: TGI (M14 melanoma)
92.3 µM: TGI (SK-OV-3 ovarian)

CC(=O)OCC1OC(n2c(=S)n(-c3ccccc3)c(=S)c3ccccc32)C(OC(C)=O)C(OC(C)=O)C1OC(C)=O (stereo unspecified)
inactive: GI50 (XF 498 CNS) 28.3 µM and 4.4 µM | GI50 (SF-268 CNS) 77.9 µM and 9.64 µM | GI50 (CAKI-1 renal) 50.7 µM and 20 µM | GI50 (RXF 393 renal) 38.4 µM and 4.04 µM | GI50 (SK-MEL-2 melanoma) 78.6 µM and > 35.8 µM | GI50 (LOX IMVI melanoma) 60.4 µM and 19.7 µM | GI50 (LXFL 529 NSCLC) 62.3 µM and 8.58 µM
> 100 µM: TGI (XF 498 CNS) | TGI (SF-268 CNS) | TGI (RXF-631 renal) | TGI (CAKI-1 renal) | TGI (TK-10 renal) | TGI (HOP-92 NSCLC) | TGI (M14 melanoma) | TGI (RXF 393 renal) | TGI (UO-31 renal) | TGI (HOP-18 NSCLC) | TGI (SK-MEL-2 melanoma) | TGI (HCT-116 colon) | TGI (LOX IMVI melanoma) | TGI (LXFL 529 NSCLC) | TGI (786-0 renal) | TGI (SNB-75 CNS) | TGI (SF-539 CNS)

Cc1nc2ccccc2c(=O)n1/N=C(\N=Nc1ccccc1Cl)c1ccccc1
46.6 µM: TGI (UACC-62 melanoma)
38.9 µM: TGI (IGROV1 ovarian)
63.9 µM: TGI (SW-620 colon)
60.9 µM: TGI (NCI-H522 lung)
38.3 µM: TGI (HL-60(TB) leukemia)
97.7 µM: TGI (M14 melanoma)
45.7 µM: TGI (XF 498 CNS)
78.3 µM: TGI (EKVX NSCLC)
> 100 µM: TGI (SF-268 CNS) | TGI (U251 CNS) | TGI (TK-10 renal) | TGI (HOP-92 NSCLC) | TGI (SK-MEL-28 melanoma) | TGI (DLD-1 colon) | TGI (HCT-15 colon) | TGI (SNB-19 CNS) | TGI (OVCAR-8 ovarian) | TGI (UO-31 renal) | TGI (HOP-18 NSCLC) | TGI (HOP-62 NSCLC) | TGI (NCI-H460 lung) | TGI (A498 renal) | TGI (NCI-H23 lung) | TGI (DMS 273 small cell lung) | TGI (SK-OV-3 ovarian) | TGI (A549 NSCLC)
55.2 µM: TGI (CCRF-CEM leukemia)
43.1 µM: TGI (SF-539 CNS)
47.6 µM: TGI (HT29 colon)
49.2 µM: TGI (COLO 205 colon) | TGI (RPMI-8226 leukemia)
43 µM: TGI (CAKI-1 renal)
67.2 µM: TGI (M19-MEL melanoma)
36.7 µM: TGI (786-0 renal)
97.9 µM: TGI (LOX IMVI melanoma)
41.9 µM: TGI (SK-MEL-5 melanoma)
48.7 µM: TGI (KM20L2 colon)
85.3 µM: TGI (RXF 393 renal)
37.8 µM: TGI (DMS 114 small cell lung)

O=C1COc2cc3c(cc2N1)SCCC(=O)N3
> 100 µM: TGI (XF 498 CNS) | TGI (HT29 colon) | TGI (SK-MEL-5 melanoma) | TGI (SF-268 CNS) | TGI (SW-620 colon) | TGI (KM12 colon) | TGI (RXF-631 renal) | TGI (CAKI-1 renal) | TGI (M19-MEL melanoma) | TGI (COLO 205 colon) | TGI (TK-10 renal) | TGI (HOP-92 NSCLC) | TGI (UACC-257 melanoma) | TGI (RPMI-8226 leukemia) | TGI (K-562 leukemia) | TGI (SR leukemia) | TGI (SK-MEL-28 melanoma) | TGI (IGROV1 ovarian) | TGI (M14 melanoma) | TGI (MOLT-4 leukemia) | TGI (DLD-1 colon) | TGI (HCC-2998 colon) | TGI (SNB-19 CNS) | TGI (EKVX NSCLC) | TGI (CCRF-CEM leukemia) | TGI (HL-60(TB) leukemia) | TGI (SF-295 CNS) | TGI (OVCAR-8 ovarian) | TGI (OVCAR-4 ovarian) | TGI (UO-31 renal) | TGI (HOP-18 NSCLC) | TGI (HOP-62 NSCLC) | TGI (A498 renal) | TGI (SN12C renal) | TGI (SK-MEL-2 melanoma) | TGI (NCI-H23 lung) | TGI (DMS 273 small cell lung) | TGI (HCT-116 colon) | TGI (SK-OV-3 ovarian) | TGI (OVCAR-3 ovarian) | TGI (UACC-62 melanoma) | TGI (LXFL 529 NSCLC) | TGI (NCI-H522 lung) | TGI (DMS 114 small cell lung) | TGI (786-0 renal) | TGI (A549 NSCLC) | TGI (MALME-3M melanoma) | TGI (SNB-75 CNS) | TGI (NCI-H226 lung) | TGI (SF-539 CNS)
